Experimental data taken from patent US5064826A, “Novel triazolo-pyrimidine derivatives” (priority 1989, dated 1991).

Experiments:
[1] = Antidepressant activity shown against tetrabenazine ptosis (T.P.) after p.o. administration; format: in vivo; conditions: for ED50: po, read-out: T.P. ED50; for TI (therapeutic index), T.P.: tetrabenazine ptosis, p.o. administration, TI = therapeutic index = LD50 (so in the source)
Excerpt: (§1) Antidepressant activity of some of compounds of formulae Ia
(§2) and Ib shown against tetrabenazine ptosis (T.P.) and
(§3) analgesic activity in Writhing test (W.t.) after p.o. administration
TI = therapeutica1 index = LD50

[2] = Analgesic activity in Writhing test (W.t.) after p.o. administration; format: in vivo; conditions: for ED50: po, read-out: W.t. ED50
Excerpt: as §1, §2, §3
TI = therapeutica1 index = LD50

| SMILES | ED50 [1] | TI (therapeutic index), T.P. [1] | TI (therapeutic index), W.t. ([2]; Writhing test, p.o. administration, TI = therapeutic index = LD50 (so in the source)) | ED50 [2] |
| --- | --- | --- | --- | --- |
| CN(C)c1nc2[nH]c3c(c(=O)n2n1)SCCC3 [Example 19, 2-Dimethylamino-5,7,8,9-tetrahydrothiopyrano[3,2-d]-1,2,4-triazolo[1,5-a]pyrimidine-5(10H)-one] | 2.7 mg/kg | 748 | – | – |
| O=c1c2c([nH]c3nc(N4CCOCC4)nn13)CCCS2 [Example 21, 2-Morpholino-5,7,8,9-tetrahydrothiopyrano[3,2-d]-1,2,4-triazolo[1,5-a]pyrimidine-5(10H)-one] | 5.2 mg/kg | 385 | – | – |
| O=c1c2c([nH]c3nc(NC4CCCCC4)nn13)CCCS2 [Example 25, 2-Cyclohexylamino-5,7,8,9-tetrahydrothiopyrano[3,2-d]-1,2,4-triazolo[1,5-a]pyrimidine-5(10H)-one] | 22.5 mg/kg | 87 | – | – |
| CC(C)(C)Nc1nc2[nH]c3c(c(=O)n2n1)SCCC3 [Example 26, 2-t-Butylamino-5,7,8,9-tetrahydrothiopyrano[3,2-d]-1,2,4-triazolo[1,5-a]pyrimidine-5(10H)-one] | – | – | 5.6 | 355 mg/kg |
| CN(C)CCC=C1c2ccccc2CCc2ccccc21 [amitriptyline, 5(3-dimethylaminopropylidene)dibenz/a,d/1,4-cycloheptadiene, reference compound] | 12 mg/kg | 19 | – | – |
| CC(=O)Nc1ccc(O)cc1 [paracetamol, p(acetylamino)-phenol, reference compound] | – | – | – | 421 mg/kg |
